Laboratory results published in patent US20150164794A1, “METHOD FOR PREPARING AQUEOUS NANOPARTICLE SUSPENSIONS OF DERIVATIVES OF 4,9-DIHYDROXY-NAPHTHO[2,3-b]FURAN ALIPHATIC ACID ESTERS” (Zhoushan Haizhongzhou Xinsheng Pharmaceuticals, Co., Ltd., priority 2012, published 2015).
Read-outs that look alike come from different tables or passages of the source.

Assay: Pharmacokinetic study of nanoparticle suspension NS-I-4 in ICR mice
Format: in vivo
Details: for MRT last: read-out: MRT(0-t); for MRT inf: read-out: MRT(0-∞); for Vd: read-out: Vz
Method: Nanoparticle suspension NS-I-4, prepared according to the method as described in example 5, was administered intravenously into ICR mice at a dosage of 30 mg/kg. At different time points (5 min, 10 min, 30 min, 1 h, 2 h, 3 h, 4 h, 6 h) after the drug injection, blood samples were withdrawn from the dosed mice, and then were centrifuged at 6,000 rpm for 10 minutes at 4° C. The supernatant plasma samples were fetched and treated with 9 times volume of acetonitrile containing 0.5% trifluoromethane sulfonic acid. The treated plasmas were centrifuged at 12,000 rpm for 15 minutes at 4° C., and then the supernatants were fetched and analyzed with HPLC.
During treatment of blood samples before HPLC analysis, active drug 2-acetyl-4,9-dihydroxy-naphtho[2,3-b]furan and active metabolite 2-(1-hydroxyl)ethyl-4,9-dihydroxy-naphtho[2,3-b]furan are both oxidized into 2-acetyl-naphtho[2,3-b]furan-4,9-dione and 2-(1-hydroxyl)ethyl-naphtho[2,3-b]furan-4,9-dione, respectively (see scheme 1).
Scheme 1: Compound I is degraded by esterases into active drug, which is further metabolized into active metabolite. During pre-treatment for HPLC analysis, active drug and metabolite are oxidized by oxygen from air to oxidized drug and oxidized metabolite, respectively.
The Waters HPLC system used in this study includes: 1525 dual pump, 2998 photodiode array detector, 2707 auto sampler, Breeze 2 control and analysis software. The HPLC column used in this study: Phenomenex Luna C18, 250×4.60 mm 5 micron. The HPLC mobile phase: buffer A, 80% water, 20% acetonitrile; buffer B, 10% water, 70% acetonitrile, 20% tetrahydrofuran. The HPLC mobile phase gradient: 0-3 min, 50% buffer B to 50% buffer B, 3-10 min, 50% buffer B to 100% buffer B, 10-20 min, 100% buffer B to 100% buffer B, 20-22 min, 100% buffer B−50% buffer B, 22-25 min, 50% buffer B to 50% buffer B; flow rate, 1 ml/min.
Time courses of compound I, oxidized drug and oxidized active metabolite are illustrated in FIG. 2.

[1] = analyte in mouse plasma after NS-I-4 intravenously 30 mg/kg, ICR mice
[2] = iv, analyte in mouse plasma after NS-I-4 intravenously 30 mg/kg, ICR mice
[3] = iv, analyte in mouse plasma after NS-I-4 intravenously 30 mg/kg, ICR mice, read-out: AUC(0-t)
[4] = iv, analyte in mouse plasma after NS-I-4 intravenously 30 mg/kg, ICR mice, read-out: Cmax
[5] = iv, analyte in mouse plasma after NS-I-4 intravenously 30 mg/kg, ICR mice, read-out: Tmax

Structure (SMILES): CC(O)c1cc2c(o1)C(=O)c1ccccc1C2=O (stereo not shown) [2-(1-hydroxy)ethyl-naphtho[2,3-b]furan-4,9-dione]
- AUC(0-t) [1]: 3801 ng·h/mL
- AUC(0-∞) [1]: 3999 ng·h/mL
- CLz [1]: 250.07 mL/min/kg
- Cmax [1]: 1695 ng/mL
- MRT(0-t) [1]: 86.28 min
- MRT(0-∞) [1]: 97.68 min
- Tmax [1]: 30 min
- Vz [1]: 19.051 L/kg
- t1/2z [1]: 52.8 min

Structure (SMILES): CC(=O)c1cc2c(o1)C(=O)c1ccccc1C2=O [2-acetyl-naphtho[2,3-b]furan-4,9-dione]
- CLz [1]: 58.62 mL/min/kg
- t1/2z [1]: 184.4 min
- AUC(0-inf) [2]: 8530 ng·h/mL
- AUC(0-t) [3]: 7420 ng·h/mL
- Cmax [4]: 6130 ng/mL
- MRT last [2]: 74.9 min
- MRT inf [2]: 147 min
- Tmax [5]: 10 min
- Vd [2]: 15.6 L/kg

Structure (SMILES): CCCCCCCC(=O)Oc1c2ccccc2c(OC(=O)CCCCCCC)c2oc(C(C)=O)cc12 [Compound I, 2-acetyl-4,9-bis(octanoyloxy)-naphtho[2,3-b]furan]
- metabolic fate (administered intravenously into ICR mice): degraded by esterases into active drug 2-acetyl-4,9-dihydroxy-naphtho[2,3-b]furan
- CLz [1]: 1.97 mL/min/kg
- t1/2z [1]: 23.8 min
- AUC(0-inf) [2]: 255000 ng·h/mL
- AUC(0-t) [3]: 255000 ng·h/mL
- Cmax [4]: 288000 ng/mL
- MRT last [2]: 37.7 min
- MRT inf [2]: 37.7 min
- Tmax [5]: 10 min
- Vd [2]: 0.067 L/kg
